In paper PMC8964227, “IP-Se-06, a Selenylated Imidazo[1,2-a]pyridine, Modulates Intracellular Redox State and Causes Akt/mTOR/HIF-1α and MAPK Signaling Inhibition, Promoting Antiproliferative Effect and Apoptosis in Glioblastoma Cells” (Oxidative Medicine and Cellular Longevity, 2022):

Columns and labels:
[1] = test system: A172 cells; assay: MTT cytotoxicity assay, A172; type: cell-based, human; conditions: for IC50: Homo sapiens, A 172, 72 h, MTT; for Selectivity Index (SI): IC50 in normal cell line (HT-22)/IC50 in A172
Experimental: (§1) Cell viability after treatments with selenylated imidazo[1,2-a]pyridines (IP-Se-01–IP-Se-10) was analyzed by quantitative colorimetric assay with MTT, according to Mosmann. IP-01, a prototype molecule without the addition of the selenium in its structure, was also tested. A172 and HT-22 cells were cultured in 96-well plates (10^4 cells/well). After confluence, cells were exposed to selenylated imidazo[1,2-a]pyridines (0.1, 1, 10, 100, and 1000 μM) for up to 72 h. After this phase, cell medium was removed and the cells were washed twice with PBS and incubated with MTT solution (0.5 mg/mL) for 2 h. The insoluble formazan was dissolved by adding DMSO (100 μL/well), and colorimetric determination of MTT reduction was measured at 550 nm in a multireader Infinite M200 Tecan. Three independent experiments were conducted, and the results are presented as IC50 (half maximal inhibitory concentration).

[2] = test system: HT-22 cells; assay: MTT cytotoxicity assay, HT-22; type: cell-based, mouse; conditions: 72 h; for IC50: Mus musculus, HT-22, MTT
Experimental: as §1

[3] = test system: thioredoxin reductase (TrxR); assay: Thioredoxin reductase activity in A172 cells (DTNB reduction); type: cell-based, human; conditions: 1 μM, 6 h, vs control
Experimental: (§2) To determine thioredoxin reductase (TrxR) activity and levels of reduced glutathione (GSH), glioblastoma cells were plated (4 × 10^5/well) into 12-well plates. At confluence, the cells were exposed at low concentration to IP-Se-06 (1 μM) for 6 h. After treatment time, cells were washed twice with PBS and resuspended with PBS/Triton 1%, centrifuged at 5000 g for 5 min and the supernatants were used for the determinations. All results were normalized by the protein content using the Bradford method.
TrxR activity was determined in A172 cells according to the method previously described by Arnér and collaborators, measuring the NADPH-dependent DTNB reduction to TNB (5-thio-2-nitrobenzoic acid) promoted by TrxR activity. The content of TNB derived from free thiols was measured at 412 nm. The enzyme activity was expressed as μmol·min^−1·mg protein^−1.

[4] = test system: reduced glutathione (GSH); assay: Reduced glutathione level in A172 cells (o-phthalaldehyde); type: cell-based, human; conditions: 1 μM, 6 h, vs control
Experimental: as §2
GSH was determined according to Hissin and Hilf using the fluorescent probe o-phthalaldehyde, which binds to free -SH groups forming the GS-OPT complex. This complex can be determined by fluorescence excitation at 350 nm and emission at 420 nm. Determinations were expressed in μGSH/μg protein.

[5] = test system: NRF2; assay: Western blotting NRF2, A172 cells; type: cell-based, human; conditions: 1 μM, vs control
Experimental: (§3) After treatment with IP-Se-06 (1 μM) for 48 h, A172 cells were harvested with a lysis buffer. The lysates were collected, and the total proteins present in the lysates were quantified according to Lowry. Proteins present in the cell lysates (30 μg) were subjected to SDS-polyacrylamide gel electrophoresis, followed by electroblotting to polyvinylidene fluoride (PVDF) membranes. Nonspecific binding was blocked by incubating the membrane with skimmed milk in TBS buffer containing 0.1% Tween 20 (TBS-T) for 1 h. After primary antibody incubation, membranes were incubated with appropriate HRP-conjugated secondary antibodies for 1 h at room temperature. Immunodetection was performed using an enhanced chemiluminescence (ECL) detection kit. Protein bands were visualized using ChemiDoc MP Imaging System (Bio-Rad) and quantified by densitometry using the freeware ImageJ by Wayne Rasband from the National Institute of Health (USA).

[6] = test system: A172 cells; assay: Mitochondrial membrane potential (TMRE); type: cell-based, human; conditions: 1 μM, 6 h, vs control
Experimental: The loss of mitochondrial transmembrane potential was analyzed using the fluorescent probe TMRE according to as proposed by O'Reilly and collaborators, with modifications. A172 cells (4 × 10^5/well) were plated in 12-well plates. After confluence, the cells were treated with IP-Se-06 (1 μM) for 6 h. After treatment, the cells were washed once with HBSS and incubated with TMRE (1 μM) at 37°C for 20 min. Lastly, the cells were washed with HBSS and the fluorescence intensity was measured at excitation peak of 549 nm and emission of 575 nm.

[7] = test system: A172 cells; assay: Chromatin condensation detection (DAPI); type: cell-based, human; conditions: 1 μM, 72 h
Experimental: DAPI was used to analyze changes in the nuclear morphology of apoptotic cells after DNA damage. A172 cells (0.5 × 10^4/well) in 24-well plates were treated with IP-Se-06 (1 μM) for 72 h. The cells were then fixed with 4% paraformaldehyde for 10 min at 4°C. The fixed cells were washed three times with PBS (pH 7.4) and stained with DAPI (3 μg/mL) in PBS at 37°C for 10 min. Finally, the cells were washed in PBS, and nuclear morphology was photographed by a fluorescence Olympus IX83 microscope.

[8] = test system: A172 cells; assay: Assessment of cell death (acridine orange plus propidium iodide); type: cell-based, human; conditions: 1 μM, 72 h, vs nontreated
Experimental: The cells were seeded (density of 2 × 10^5/well) into 6-well plates. After confluence, cells were treated with IP-Se-06 (1 μM) for 72 h. After this period, tumor cells were washed with PBS, trypsinized, centrifuged at 1500 g for 5 min, resuspended in PBS, and stained with a solution (6 μL, 1 : 1) of acridine orange (100 μg/mL) plus propidium iodide (100 μg/mL). This staining is used to analyze nuclear changes that characterize apoptotic and necrotic cells according to McGahon and collaborators. Cells (300/glass slide) from triplicates were observed under a fluorescence microscope (Olympus BX41) and categorized as viable, apoptotic, or necrotic.

[9] = test system: cytochrome c; assay: Western blotting cytochrome c (cytosolic fraction), A172 cells; type: cell-based, human; conditions: 1 μM, vs control
Experimental: as §3

[10] = test system: γ-H2AX; assay: Western blotting γ-H2AX, A172 cells; type: cell-based, human; conditions: 1 μM, vs control
Experimental: as §3

[11] = test system: p53; assay: Western blotting p53, A172 cells; type: cell-based, human; conditions: 1 μM, vs control
Experimental: as §3

[12] = test system: Bcl-xL; assay: Western blotting Bcl-xL, A172 cells; type: cell-based, human; conditions: 1 μM, vs control
Experimental: as §3

[13] = test system: A172 cells; assay: Cell cycle analysis (PI, flow cytometry); type: cell-based, human; conditions: 1 μM, 72 h, vs untreated
Experimental: The PI/RNAse solution from the Immunostep® kit (Salamanca, Spain) was used to determine the DNA content of cells of the different phases of cell cycle by flow cytometry using the protocol proposed by the manufacturer. A172 cells were plated on 6-well plates at a density of 2 × 10^5/well until confluence and synchronization with nocodazole (30 ng/mL) for 14 h. The cells were treated with IP-Se-06 (1 μM) for 72 h, carefully washed with PBS, and fixed in cold ethanol (70%) overnight at -20°C. Finally, cells were washed again, resuspended in PI/RNAse solution, and incubated for 15 min at room temperature. Cells were analyzed using a BD FACSCanto II (BD Biosciences) flow cytometer. Data were processed using Flowing Software 2.5.1.

[14] = test system: Akt; assay: Western blotting Akt, A172 cells; type: cell-based, human; conditions: 1 μM, 48 h, vs control
Experimental: as §3

[15] = test system: p-Akt; assay: Western blotting p-Akt, A172 cells; type: cell-based, human; conditions: 1 μM, 48 h, vs control
Experimental: as §3

[16] = test system: mTOR; assay: Western blotting mTOR, A172 cells; type: cell-based, human; conditions: 1 μM, 48 h, vs control
Experimental: as §3

[17] = test system: HIF-1α; assay: Western blotting HIF-1α, A172 cells; type: cell-based, human; conditions: 1 μM, 48 h, vs control
Experimental: as §3

[18] = test system: HIF-1α; assay: Immunocytochemistry staining for HIF-1α localization; type: cell-based, human; conditions: 1 μM, 48 h
Experimental: A172 cells were treated with IP-Se-06 (1 μM) for 48 h, fixed with paraformaldehyde (4%) for 15 min and washed three times with PBS. The cells were then treated with blocking solution (0.5% BSA in PBS containing 0.3% of triton X-100) for 1 h at room temperature and incubated with rabbit polyclonal primary antibody HIF-1α (Cat. sc-10790, dilution 1 : 500) overnight at 4°C. Following this, the cells were washed three times with PBS and incubated with secondary antibody polyclonal goat anti-rabbit IgG antibody (Cat. AP132P, dilution 1 : 1000) for 1 h. The cell nuclei were stained with DAPI (3 μg/mL). The cell images were acquired from ten randomly chosen fields for each condition using an Olympus IX83 fluorescent microscope.

[19] = test system: A172 cells; assay: Clonogenic assay; type: cell-based, human; conditions: 1 μM, 72 h
Experimental: To analyze the ability of the organoselenium compound to prevent cell proliferation and the progression of tumorigenesis, the methodology proposed by Franken and collaborators was used. In total, 500 cells per well were seeded in 6-well plates for 24 h. Before treatment with IP-Se-06, two groups were treated with the mitogen-activated protein kinase/ERK kinase inhibitor U0126 (Cell Signaling Technology, USA, Cat. #9903) at 10 μM for 1 h. A172 cells were exposed to IP-Se-06 (1 μM), while untreated cells were maintained as a control. After 72 h of incubation, the cells were washed with PBS, and fresh growth medium DMEM-F12 was added. At 7 days after treatment, colonies were fixed with 10% ethanol, stained with 0.5% crystal violet stain solution, manually counted, and photographed. Finally, cells were discolored with 1 mL of acetic acid 10% for 10 min, and the absorbance was measured at 590 nm in a multireader (Infinite M200 TECAN).

[20] = test system: ERK 1/2; assay: Western blotting ERK 1/2, A172 cells; type: cell-based, human; conditions: 1 μM, 48 h
Experimental: as §3

[21] = test system: p38 MAPK; assay: Western blotting p38, A172 cells; type: cell-based, human; conditions: 1 μM, 48 h, vs control
Experimental: as §3

[22] = test system: p-p38; assay: Western blotting p-p38, A172 cells; type: cell-based, human; conditions: 1 μM, 48 h, vs control
Experimental: as §3

[23] = test system: NLRP3; assay: Western blotting NLRP3, A172 cells; type: cell-based, human; conditions: 1 μM, 48 h, vs control
Experimental: as §3

[24] = test system: caspase-1; assay: Western blotting caspase-1, A172 cells; type: cell-based, human; conditions: 1 μM, 48 h, vs control
Experimental: as §3

[25] = test system: Ehrlich ascitic carcinoma; design: method as in PMID 33125183; conditions: 1 mg/kg, Ehrlich ascitic carcinoma-bearing mice; cited from earlier work

Cc1ccn2cc(-c3ccccc3)nc2c1 [IP-01]
IC50 [1]: 76.3 µM | Selectivity Index (SI) [1]: 2.0 | IC50 [2]: 153 µM

Cc1ccn2c([Se]c3ccccc3)c(-c3ccccc3)nc2c1 [IP-Se-01]
IC50 [1]: 98.8 µM | Selectivity Index (SI) [1]: 0.7 | IC50 [2]: 75.4 µM

Cc1ccc([Se]c2c(-c3ccccc3)nc3cc(C)ccn23)cc1 [IP-Se-02]
IC50 [1]: 73.2 µM | Selectivity Index (SI) [1]: 1.9 | IC50 [2]: 144 µM

COc1ccc([Se]c2c(-c3ccccc3)nc3cc(C)ccn23)cc1 [IP-Se-03]
IC50 [1]: 27.6 µM | Selectivity Index (SI) [1]: 0.1 | IC50 [2]: 3.9 µM

Cc1ccn2c([Se]c3ccc(Cl)cc3)c(-c3ccccc3)nc2c1 [IP-Se-04]
IC50 [1]: 43.6 µM | Selectivity Index (SI) [1]: 7.0 | IC50 [2]: 306 µM

Cc1ccn2c([Se]c3cccc4ccccc34)c(-c3ccccc3)nc2c1 [IP-Se-05]
IC50 [1]: 20.8 µM | Selectivity Index (SI) [1]: 9.9 | IC50 [2]: 206 µM

COc1ccccc1[Se]c1c(-c2ccccc2)nc2cc(C)ccn12 [IP-Se-06, 3-((2-methoxyphenyl)selanyl)-7-methyl-2-phenylimidazol[1,2-a]pyridine]
approximate IC25 value ([1]; A172, concentration used in further experiments): ~1 µM | IC50 [1]: 1.8 µM | Selectivity Index (SI) [1]: 36.5 | cytotoxic activity on the mouse hippocampal cell line ([2]; in words): no significant cytotoxic activity | IC50 [2]: 65 µM | TrxR intracellular activity [3]: significantly decreased | levels of GSH [4]: significantly decreased | levels of NRF2 protein [5]: decreased | ΔΨm, TMRE fluorescence intensity [6]: reduced | nuclear morphology (DAPI) [7]: brightly stained and condensed nuclei | apoptosis (acridine orange plus propidium iodide) [8]: able to induce apoptosis | levels of cytochrome c [9]: increased | levels of γ-H2AX [10]: increased | levels of p53 [11]: increased | levels of Bcl-xL [12]: decreased | G2/M phase cell population [13]: decrease | S phase [13]: no significant effect | cell population in the G1 phase [13]: increased | cell proportion in sub-G1 peak [13]: increased | levels of Akt [14]: significant reduction | levels of p-Akt [15]: significant reduction | levels of mTOR [16]: significant reduction | HIF-1α levels [17]: significantly decreased | HIF-1α localization [18]: seemed not to be translocated to the nucleus | number of cells in the colonies (absorbance 590 nm) ([19]; concomitantly with U0126 10 μM 1 h, vs treatments alone): even lower | number of cells in the colonies (absorbance 590 nm) ([19]; vs control): decreased | rate of colony formation ([19]; vs nontreated): decreased | ERK 1/2 levels ([20]; combination with U0126 10 μM 1 h, vs nontreated and U0126 alone): synergistic inhibition | ERK 1/2 levels ([20]; vs control): important reduction | levels of p38 [21]: significantly decreased | phosphorylation of p38 (p-p38) [22]: significantly decreased | levels of NLRP3 [23]: decreased | levels of caspase-1 [24]: decreased | angiogenesis [25]: inhibited angiogenesis | tumor growth [25]: growth inhibition of tumor

Cc1ccn2c([Se]c3cccs3)c(-c3ccccc3)nc2c1 [IP-Se-07]
IC50 [1]: 27.9 µM | Selectivity Index (SI) [1]: 0.4 | IC50 [2]: 10.7 µM

CCCC[Se]c1c(-c2ccccc2)nc2cc(C)ccn12 [IP-Se-08]
IC50 [1]: 20.9 µM | Selectivity Index (SI) [1]: 1.5 | IC50 [2]: 31.2 µM

c1ccc([Se]c2c(-c3ccccc3)nc3ncccn23)cc1 [IP-Se-09]
IC50 [1]: 21.8 µM | Selectivity Index (SI) [1]: 0.3 | IC50 [2]: 6 µM

COc1ccc(-c2nc3cc(C)ccn3c2[Se]c2ccccc2)cc1 [IP-Se-10]
IC50 [1]: 18.8 µM | Selectivity Index (SI) [1]: 1.6 | IC50 [2]: 30 µM
